# Data from ChEMBL document CHEMBL3991601, “The target landscape of clinical kinase drugs” (Science, 2017).
# The source made the active and inactive calls.
# Assays:
# [1] = target: Cyclin-dependent kinase 3 (Homo sapiens, UniProt Q00526)
# [2] = target: Structural maintenance of chromosomes protein 2 (Homo sapiens, UniProt O95347)
# [3] = target: T1, STE20-related kinase adapter protein alpha (Homo sapiens, UniProt Q7RTN6)
# T1 sequence (Q7RTN6 whole entry): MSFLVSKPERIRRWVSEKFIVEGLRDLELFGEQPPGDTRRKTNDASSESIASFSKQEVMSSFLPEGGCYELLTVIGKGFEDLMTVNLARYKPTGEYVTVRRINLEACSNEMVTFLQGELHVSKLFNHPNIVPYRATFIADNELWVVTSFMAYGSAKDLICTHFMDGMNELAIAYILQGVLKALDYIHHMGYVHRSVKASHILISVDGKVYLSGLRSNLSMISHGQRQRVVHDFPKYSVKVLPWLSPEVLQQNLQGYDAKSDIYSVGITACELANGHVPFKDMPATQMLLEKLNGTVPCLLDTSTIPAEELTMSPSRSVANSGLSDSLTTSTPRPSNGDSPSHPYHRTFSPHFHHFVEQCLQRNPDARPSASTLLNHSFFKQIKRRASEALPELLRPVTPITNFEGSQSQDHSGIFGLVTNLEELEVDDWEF
# [4] = target: 26S proteasome regulatory subunit 6B (Homo sapiens, UniProt P43686)
# [5] = target: Myosin light chain kinase, smooth muscle (Homo sapiens, UniProt Q15746)
# [6] = target: cAMP-dependent protein kinase type II-alpha regulatory subunit (Homo sapiens, UniProt P13861)
# [7] = target: Mitogen-activated protein kinase kinase kinase kinase 1 (Homo sapiens, UniProt Q92918)
# [8] = target: T2, Uncharacterized protein FLJ45252 (Homo sapiens, UniProt Q6ZSR9); conditions: read-out: Kd apparent; k-562, colo 205, sk-n-be(2) and mv-4-11
# T2 sequence (Q6ZSR9 whole entry): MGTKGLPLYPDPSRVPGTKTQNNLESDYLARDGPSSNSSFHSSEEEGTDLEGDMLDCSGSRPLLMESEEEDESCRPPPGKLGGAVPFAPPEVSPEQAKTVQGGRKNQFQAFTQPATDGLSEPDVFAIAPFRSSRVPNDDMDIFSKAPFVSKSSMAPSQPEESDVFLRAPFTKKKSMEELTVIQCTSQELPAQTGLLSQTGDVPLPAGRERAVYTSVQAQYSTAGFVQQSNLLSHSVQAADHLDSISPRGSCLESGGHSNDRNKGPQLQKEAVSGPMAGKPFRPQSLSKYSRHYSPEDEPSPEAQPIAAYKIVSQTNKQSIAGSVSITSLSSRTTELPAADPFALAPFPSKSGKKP
# Activated CDC42 kinase 1 = Activated CDC42 kinase 1 (Homo sapiens, UniProt Q07912)
# Scaffold protein ILK = target: T3, Scaffold protein ILK (Homo sapiens, UniProt Q13418)
# T3 sequence (Q13418 whole entry): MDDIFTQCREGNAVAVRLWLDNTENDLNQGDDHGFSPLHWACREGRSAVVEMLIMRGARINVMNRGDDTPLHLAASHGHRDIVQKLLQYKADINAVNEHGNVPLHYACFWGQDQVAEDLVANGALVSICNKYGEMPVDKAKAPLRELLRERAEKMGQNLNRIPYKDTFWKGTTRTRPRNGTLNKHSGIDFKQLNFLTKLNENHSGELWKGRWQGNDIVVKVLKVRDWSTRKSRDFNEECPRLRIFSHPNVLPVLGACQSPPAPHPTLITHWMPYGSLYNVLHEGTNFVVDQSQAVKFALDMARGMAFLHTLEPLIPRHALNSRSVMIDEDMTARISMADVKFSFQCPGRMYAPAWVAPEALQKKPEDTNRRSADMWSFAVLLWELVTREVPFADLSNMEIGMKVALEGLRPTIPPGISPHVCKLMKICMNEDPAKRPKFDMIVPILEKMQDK
# [9] = target: T4, Serine/threonine-protein kinase TBK1 (Homo sapiens, UniProt Q9UHD2)
# T4 sequence (Q9UHD2 whole entry): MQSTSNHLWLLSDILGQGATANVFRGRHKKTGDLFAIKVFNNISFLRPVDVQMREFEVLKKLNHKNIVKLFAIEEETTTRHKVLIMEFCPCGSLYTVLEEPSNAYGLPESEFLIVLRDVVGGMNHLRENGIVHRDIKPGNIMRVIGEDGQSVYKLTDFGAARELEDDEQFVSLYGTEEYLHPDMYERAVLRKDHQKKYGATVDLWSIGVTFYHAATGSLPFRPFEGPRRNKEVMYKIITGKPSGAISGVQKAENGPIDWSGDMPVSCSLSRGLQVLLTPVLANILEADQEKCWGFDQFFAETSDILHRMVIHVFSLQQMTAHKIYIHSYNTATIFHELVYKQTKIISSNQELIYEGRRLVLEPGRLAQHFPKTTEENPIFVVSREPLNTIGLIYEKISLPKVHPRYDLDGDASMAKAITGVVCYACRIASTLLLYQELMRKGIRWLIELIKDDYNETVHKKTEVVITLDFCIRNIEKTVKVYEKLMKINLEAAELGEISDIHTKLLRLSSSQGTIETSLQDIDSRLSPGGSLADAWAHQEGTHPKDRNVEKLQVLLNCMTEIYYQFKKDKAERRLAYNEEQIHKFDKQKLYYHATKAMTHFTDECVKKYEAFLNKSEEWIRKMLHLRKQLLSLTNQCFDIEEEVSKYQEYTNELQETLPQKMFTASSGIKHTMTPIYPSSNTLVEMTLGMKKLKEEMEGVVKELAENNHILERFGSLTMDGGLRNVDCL
# [10] = target: T5, Ras-related protein Rab-10 (Homo sapiens, UniProt P61026)
# T5 sequence (P61026 whole entry): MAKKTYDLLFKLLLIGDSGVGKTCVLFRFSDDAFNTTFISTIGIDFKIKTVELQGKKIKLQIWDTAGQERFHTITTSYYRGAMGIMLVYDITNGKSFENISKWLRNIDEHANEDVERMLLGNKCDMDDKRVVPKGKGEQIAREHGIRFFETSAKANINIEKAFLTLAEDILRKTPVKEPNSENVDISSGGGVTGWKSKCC
# Further: in the data inactive means no Kd found up to 30 µM.
# Sequence of cAMP-dependent protein kinase type II-alpha regulatory subunit (P13861 whole entry): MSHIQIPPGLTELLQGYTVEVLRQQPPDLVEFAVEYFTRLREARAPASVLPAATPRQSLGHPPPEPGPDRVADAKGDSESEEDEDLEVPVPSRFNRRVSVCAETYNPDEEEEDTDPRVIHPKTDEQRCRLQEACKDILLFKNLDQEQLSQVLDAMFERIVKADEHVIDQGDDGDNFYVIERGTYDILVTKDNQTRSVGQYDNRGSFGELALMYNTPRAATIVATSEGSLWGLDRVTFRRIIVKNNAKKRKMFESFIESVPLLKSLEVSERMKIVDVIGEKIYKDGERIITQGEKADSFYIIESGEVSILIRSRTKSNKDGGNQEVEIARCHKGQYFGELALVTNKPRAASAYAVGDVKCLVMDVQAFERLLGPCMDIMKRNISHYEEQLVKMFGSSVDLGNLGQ
# Sequence of 26S proteasome regulatory subunit 6B (P43686 whole entry): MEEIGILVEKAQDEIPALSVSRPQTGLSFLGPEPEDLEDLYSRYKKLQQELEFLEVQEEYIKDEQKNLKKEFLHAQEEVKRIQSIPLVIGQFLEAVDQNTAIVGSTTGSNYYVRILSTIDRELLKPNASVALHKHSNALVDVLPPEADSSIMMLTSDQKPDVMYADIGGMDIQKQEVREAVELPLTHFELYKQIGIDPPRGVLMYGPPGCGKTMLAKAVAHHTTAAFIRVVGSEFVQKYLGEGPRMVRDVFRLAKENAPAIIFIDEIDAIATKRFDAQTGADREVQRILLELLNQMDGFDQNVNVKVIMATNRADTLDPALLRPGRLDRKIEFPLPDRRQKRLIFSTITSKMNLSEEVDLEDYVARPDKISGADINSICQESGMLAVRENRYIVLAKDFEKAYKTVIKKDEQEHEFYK
# Sequence of Cyclin-dependent kinase 3 (Q00526 whole entry): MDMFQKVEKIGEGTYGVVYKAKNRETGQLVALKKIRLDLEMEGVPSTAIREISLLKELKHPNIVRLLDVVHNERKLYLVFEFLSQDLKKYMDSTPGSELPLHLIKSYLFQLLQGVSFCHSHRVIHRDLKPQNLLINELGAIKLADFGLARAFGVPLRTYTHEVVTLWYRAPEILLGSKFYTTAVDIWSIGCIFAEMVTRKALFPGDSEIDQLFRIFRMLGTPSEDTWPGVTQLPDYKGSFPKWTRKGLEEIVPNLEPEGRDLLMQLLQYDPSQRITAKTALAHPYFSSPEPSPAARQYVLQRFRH
# Sequence of Structural maintenance of chromosomes protein 2 (O95347 whole entry): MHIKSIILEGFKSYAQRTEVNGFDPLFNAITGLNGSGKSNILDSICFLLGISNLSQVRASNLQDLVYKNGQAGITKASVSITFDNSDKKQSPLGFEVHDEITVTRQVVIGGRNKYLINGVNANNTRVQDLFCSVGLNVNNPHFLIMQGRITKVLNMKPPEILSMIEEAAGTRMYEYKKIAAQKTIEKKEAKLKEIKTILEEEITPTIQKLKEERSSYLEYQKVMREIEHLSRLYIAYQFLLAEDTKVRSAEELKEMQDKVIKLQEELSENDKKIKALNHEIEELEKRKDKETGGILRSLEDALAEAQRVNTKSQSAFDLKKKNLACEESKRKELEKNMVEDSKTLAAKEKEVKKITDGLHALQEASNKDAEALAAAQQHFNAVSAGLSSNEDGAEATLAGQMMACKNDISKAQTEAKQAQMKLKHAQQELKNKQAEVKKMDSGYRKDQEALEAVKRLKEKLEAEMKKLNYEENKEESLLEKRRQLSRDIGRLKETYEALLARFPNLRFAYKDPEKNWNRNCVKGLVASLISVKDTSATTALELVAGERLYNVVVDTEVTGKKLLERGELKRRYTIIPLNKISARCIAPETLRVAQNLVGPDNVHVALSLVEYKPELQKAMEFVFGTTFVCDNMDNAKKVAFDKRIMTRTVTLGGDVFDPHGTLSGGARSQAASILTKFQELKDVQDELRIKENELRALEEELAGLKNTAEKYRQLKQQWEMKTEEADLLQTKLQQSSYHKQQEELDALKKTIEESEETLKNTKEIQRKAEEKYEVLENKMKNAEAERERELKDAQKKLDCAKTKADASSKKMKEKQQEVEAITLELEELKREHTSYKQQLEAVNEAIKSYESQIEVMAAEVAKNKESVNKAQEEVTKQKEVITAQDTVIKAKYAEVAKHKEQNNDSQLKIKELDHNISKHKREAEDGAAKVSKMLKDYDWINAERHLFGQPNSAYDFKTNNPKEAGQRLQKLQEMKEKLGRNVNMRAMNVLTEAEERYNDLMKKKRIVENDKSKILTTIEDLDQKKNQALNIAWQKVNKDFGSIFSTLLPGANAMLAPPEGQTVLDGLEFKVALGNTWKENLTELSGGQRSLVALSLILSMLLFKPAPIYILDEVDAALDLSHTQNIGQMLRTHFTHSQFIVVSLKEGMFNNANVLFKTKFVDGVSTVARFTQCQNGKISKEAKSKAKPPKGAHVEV
# Sequence of Mitogen-activated protein kinase kinase kinase kinase 1 (Q92918 whole entry): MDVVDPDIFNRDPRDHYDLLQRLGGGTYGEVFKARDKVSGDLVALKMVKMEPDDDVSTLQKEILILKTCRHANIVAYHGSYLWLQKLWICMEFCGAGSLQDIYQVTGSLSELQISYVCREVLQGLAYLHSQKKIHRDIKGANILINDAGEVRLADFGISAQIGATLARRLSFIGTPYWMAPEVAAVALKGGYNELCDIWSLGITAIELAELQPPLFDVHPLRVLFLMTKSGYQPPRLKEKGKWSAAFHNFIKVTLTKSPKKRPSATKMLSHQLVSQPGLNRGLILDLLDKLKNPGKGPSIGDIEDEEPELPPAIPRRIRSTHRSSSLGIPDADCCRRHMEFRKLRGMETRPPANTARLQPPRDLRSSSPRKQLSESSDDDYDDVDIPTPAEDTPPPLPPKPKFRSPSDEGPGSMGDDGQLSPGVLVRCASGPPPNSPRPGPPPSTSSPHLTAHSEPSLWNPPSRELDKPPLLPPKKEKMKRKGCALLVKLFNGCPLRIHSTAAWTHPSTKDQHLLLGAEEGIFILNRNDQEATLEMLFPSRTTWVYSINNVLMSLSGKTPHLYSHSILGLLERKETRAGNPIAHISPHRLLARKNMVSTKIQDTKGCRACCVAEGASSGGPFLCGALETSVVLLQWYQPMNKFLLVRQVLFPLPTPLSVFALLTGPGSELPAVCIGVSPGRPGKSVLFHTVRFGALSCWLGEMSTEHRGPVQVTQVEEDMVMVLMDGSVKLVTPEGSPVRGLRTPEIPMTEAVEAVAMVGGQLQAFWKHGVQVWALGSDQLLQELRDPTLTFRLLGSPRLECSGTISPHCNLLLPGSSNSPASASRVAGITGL
# Sequence of Activated CDC42 kinase 1 (Q07912 whole entry): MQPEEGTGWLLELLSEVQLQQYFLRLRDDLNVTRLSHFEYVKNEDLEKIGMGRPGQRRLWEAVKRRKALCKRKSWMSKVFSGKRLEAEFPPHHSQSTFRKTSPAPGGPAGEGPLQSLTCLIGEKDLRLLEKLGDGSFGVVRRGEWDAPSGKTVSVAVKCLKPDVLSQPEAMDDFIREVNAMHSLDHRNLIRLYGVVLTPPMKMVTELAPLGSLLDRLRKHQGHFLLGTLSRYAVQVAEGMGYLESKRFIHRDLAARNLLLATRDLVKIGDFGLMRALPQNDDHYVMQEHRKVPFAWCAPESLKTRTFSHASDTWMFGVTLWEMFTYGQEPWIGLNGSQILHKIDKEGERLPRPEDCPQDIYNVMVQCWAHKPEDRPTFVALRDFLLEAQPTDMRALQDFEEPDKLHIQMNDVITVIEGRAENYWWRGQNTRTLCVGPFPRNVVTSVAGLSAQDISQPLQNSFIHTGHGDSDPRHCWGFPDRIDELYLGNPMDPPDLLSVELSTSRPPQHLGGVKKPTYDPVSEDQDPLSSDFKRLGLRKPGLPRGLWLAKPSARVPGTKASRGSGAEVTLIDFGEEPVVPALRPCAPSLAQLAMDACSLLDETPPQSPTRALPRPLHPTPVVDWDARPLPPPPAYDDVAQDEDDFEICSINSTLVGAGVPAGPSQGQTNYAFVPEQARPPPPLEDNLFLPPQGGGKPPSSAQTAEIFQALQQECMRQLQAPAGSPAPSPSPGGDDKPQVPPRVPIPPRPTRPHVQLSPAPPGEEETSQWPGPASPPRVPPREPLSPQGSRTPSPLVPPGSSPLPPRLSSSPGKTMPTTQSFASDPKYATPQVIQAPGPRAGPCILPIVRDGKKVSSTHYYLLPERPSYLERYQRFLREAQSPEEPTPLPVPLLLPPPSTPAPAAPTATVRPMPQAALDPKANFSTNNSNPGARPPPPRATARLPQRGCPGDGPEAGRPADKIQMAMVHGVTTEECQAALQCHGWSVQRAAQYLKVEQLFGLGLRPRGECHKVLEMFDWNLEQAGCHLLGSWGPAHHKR
SMILES,Kd [1],Kd [2],Kd [3],Kd [4],Kd [5],Kd [6],Kd [7],Kd [8],Kd (Activated CDC42 kinase 1),Kd (Scaffold protein ILK),Kd [9],Kd [10]
COc1ncc(-c2ccc3nccc(-c4ccnnc4)c3c2)cc1NS(=O)(=O)c1ccc(F)cc1F [OMIPALISIB],> 30 µM (inactive),> 30 µM (inactive),> 30 µM (inactive),> 30 µM (inactive),> 30 µM (inactive),> 30 µM (inactive),> 30 µM (inactive),> 30 µM (inactive),> 30 µM (inactive),> 30 µM (inactive),> 30 µM (inactive),> 30 µM (inactive)
CCOc1cc2ncc(C#N)c(Nc3ccc(F)c(Cl)c3)c2cc1NC(=O)/C=C/CN(C)C [PELITINIB],> 30 µM (inactive),> 30 µM (inactive),> 30 µM (inactive),> 30 µM (inactive),> 30 µM (inactive),> 30 µM (inactive),1.1 µM (active),> 30 µM (inactive),> 30 µM (inactive),> 30 µM (inactive),> 30 µM (inactive),> 30 µM (inactive)
Cc1cnc(NC(=O)Nc2cc(Br)c(C)cc2OC[C@@H]2CNCCO2)cn1 [RABUSERTIB],> 30 µM (inactive),> 30 µM (inactive),> 30 µM (inactive),> 30 µM (inactive),> 30 µM (inactive),> 30 µM (inactive),> 30 µM (inactive),> 30 µM (inactive),> 30 µM (inactive),> 30 µM (inactive),> 30 µM (inactive),> 30 µM (inactive)
CNC(=O)c1cc(Oc2ccc(NC(=O)Nc3cc(C(C)(C)C)nn3-c3ccc4ncccc4c3)c(F)c2)ccn1 [REBASTINIB],2.65 µM (active),> 30 µM (inactive),> 30 µM (inactive),> 30 µM (inactive),2.18 µM (active),> 30 µM (inactive),0.566 µM (active),> 30 µM (inactive),> 30 µM (inactive),> 30 µM (inactive),> 30 µM (inactive),> 30 µM (inactive)
CO[C@H]1C[C@@H]2CC[C@@H](C)[C@@](O)(O2)C(=O)C(=O)N2CCCC[C@H]2C(=O)O[C@H]([C@H](C)C[C@@H]2CC[C@@H](OP(C)(C)=O)[C@H](OC)C2)CC(=O)[C@H](C)/C=C(\C)[C@@H](O)[C@@H](OC)C(=O)[C@H](C)C[C@H](C)/C=C/C=C/C=C/1C [RIDAFOROLIMUS],> 30 µM (inactive),> 30 µM (inactive),> 30 µM (inactive),> 30 µM (inactive),> 30 µM (inactive),> 30 µM (inactive),> 30 µM (inactive),> 30 µM (inactive),> 30 µM (inactive),> 30 µM (inactive),> 30 µM (inactive),> 30 µM (inactive)
O=c1[nH]ccc2cc(OC3CCNCC3)ccc12 [SAR-407899 FREE BASE],> 30 µM (inactive),> 30 µM (inactive),> 30 µM (inactive),> 30 µM (inactive),> 30 µM (inactive),> 30 µM (inactive),> 30 µM (inactive),0.013 µM (active),> 30 µM (inactive),> 30 µM (inactive),> 30 µM (inactive),> 30 µM (inactive)
CN1CCN(CCOc2cc(OC3CCOCC3)c3c(Nc4c(Cl)ccc5c4OCO5)ncnc3c2)CC1 [SARACATINIB],> 30 µM (inactive),> 30 µM (inactive),> 30 µM (inactive),> 30 µM (inactive),> 30 µM (inactive),> 30 µM (inactive),> 30 µM (inactive),> 30 µM (inactive),4.65 µM (active),> 30 µM (inactive),> 30 µM (inactive),> 30 µM (inactive)
CO[C@H]1C[C@@H]2CC[C@@H](C)[C@@](O)(O2)C(=O)C(=O)N2CCCC[C@H]2C(=O)O[C@H]([C@H](C)C[C@@H]2CC[C@@H](OC(=O)C(C)(CO)CO)[C@H](OC)C2)CC(=O)[C@H](C)/C=C(\C)[C@@H](O)[C@@H](OC)C(=O)[C@H](C)C[C@H](C)/C=C/C=C/C=C/1C [TEMSIROLIMUS],> 30 µM (inactive),> 30 µM (inactive),> 30 µM (inactive),> 30 µM (inactive),> 30 µM (inactive),> 30 µM (inactive),> 30 µM (inactive),> 30 µM (inactive),> 30 µM (inactive),> 30 µM (inactive),> 30 µM (inactive),> 30 µM (inactive)
COc1cc2c(Nc3ccc(Cl)c(Cl)c3F)ncnc2cc1OC[C@@H]1C[C@@H]2CN(C)C[C@@H]2C1 [TESEVATINIB],> 30 µM (inactive),> 30 µM (inactive),> 30 µM (inactive),> 30 µM (inactive),> 30 µM (inactive),> 30 µM (inactive),> 30 µM (inactive),> 30 µM (inactive),> 30 µM (inactive),> 30 µM (inactive),> 30 µM (inactive),> 30 µM (inactive)
O=C(Cc1ccc(-c2ccc(OCCN3CCOCC3)cc2)cn1)NCc1ccccc1 [TIRBANIBULIN],> 30 µM (inactive),> 30 µM (inactive),> 30 µM (inactive),> 30 µM (inactive),> 30 µM (inactive),> 30 µM (inactive),> 30 µM (inactive),> 30 µM (inactive),> 30 µM (inactive),> 30 µM (inactive),> 30 µM (inactive),> 30 µM (inactive)
O=C1NC(=O)[C@@H](c2cn3c4c(cccc24)CCC3)[C@@H]1c1c[nH]c2ccccc12 [TIVANTINIB],> 30 µM (inactive),> 30 µM (inactive),> 30 µM (inactive),> 30 µM (inactive),> 30 µM (inactive),> 30 µM (inactive),> 30 µM (inactive),> 30 µM (inactive),> 30 µM (inactive),> 30 µM (inactive),> 30 µM (inactive),> 30 µM (inactive)
C[C@@H](NC(=O)c1ncnc(N)c1Cl)c1ncc(C(=O)Nc2cc(C(F)(F)F)c(Cl)cn2)s1 [TOVORAFENIB],> 30 µM (inactive),> 30 µM (inactive),> 30 µM (inactive),> 30 µM (inactive),4.41 µM,> 30 µM (inactive),> 30 µM (inactive),> 30 µM (inactive),> 30 µM (inactive),> 30 µM (inactive),> 30 µM (inactive),> 30 µM (inactive)
